Experimental data from ChEMBL document CHEMBL1134858, “Identification of a novel 1'-[5-((3,5-dichlorobenzoyl)methylamino)-3-(3,4-dichlorophenyl)-4-(methoxyimino)pentyl]-2-oxo-(1,4'-bipiperidine) as a dual NK(1)/NK(2) antagonist” (Bioorg Med Chem Lett, 2002).
pKi: −log10 of the molar value. Several values for one entry are separate records, joined by “and”; a condition that tells them apart may be missing. Equal values may be shown once.

Assays:
Substance-K receptor [1] = target: T1, Substance-K receptor (Cavia porcellus, UniProt Q64077); experiment: In vitro binding to Tachykinin receptor 2
T1 sequence (Q64077 whole entry): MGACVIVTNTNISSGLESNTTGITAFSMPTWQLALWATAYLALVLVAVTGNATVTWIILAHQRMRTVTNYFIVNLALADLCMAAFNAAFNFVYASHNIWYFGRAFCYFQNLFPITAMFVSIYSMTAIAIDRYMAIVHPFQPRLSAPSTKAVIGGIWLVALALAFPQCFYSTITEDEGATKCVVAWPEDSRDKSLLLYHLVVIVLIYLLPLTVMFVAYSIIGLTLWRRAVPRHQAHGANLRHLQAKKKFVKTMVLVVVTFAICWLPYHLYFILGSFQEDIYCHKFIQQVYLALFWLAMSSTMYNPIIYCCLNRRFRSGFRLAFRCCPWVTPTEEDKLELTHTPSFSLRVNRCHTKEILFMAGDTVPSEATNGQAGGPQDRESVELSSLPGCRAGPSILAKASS

Substance-P receptor [2] = target: T2, Substance-P receptor (Cavia porcellus, UniProt P30547); experiment: In vitro binding to Tachykinin receptor 1
Substance-K receptor [3] = target: T1, Substance-K receptor; experiment: In vitro functional NK2 activity as inhibition of guinea pig bronchoconstriction; assay type: tissue-based, Lung; conditions: read-out: pA2 (converted)
Substance-P receptor [4] = target: T2, Substance-P receptor; experiment: In vitro functional NK1 activity as inhibition of guinea pig bronchoconstriction; assay type: tissue-based, Lung; conditions: read-out: pA2 (converted)
Cavia porcellus [5] = experiment: In vivo NK2 activity is characterized by the compounds ability to inhibit bronchoconstriction produced by a NKA challenge at 10 mpk; assay type: functional; conditions: Lung
Cavia porcellus [6] = experiment: In vivo NK1 activity in the guinea pig is characterized by the compounds ability to inhibit the increase in airway microvascular leakage (AML) produced by a SP challenge at 10 mg/kg; assay type: functional
Cavia porcellus [7] = experiment: In vivo NK2 activity is characterized by the compounds ability to inhibit bronchoconstriction produced by a NKA challenge at 10 mg/kg; assay type: functional; conditions: Lung
Cavia porcellus [8] = experiment: In vivo NK1 activity in the guinea pig is characterized by the compounds ability to inhibit the increase in airway microvascular leakage (AML) produced by a SP challenge; assay type: functional
Cavia porcellus [9] = experiment: In vivo NK2 activity is characterized by the compounds ability to inhibit bronchoconstriction produced by a NKA challenge; assay type: functional; conditions: Lung
[10] = Bioavailability in dog; assay type: ADME, organism-based, Canis lupus familiaris; conditions: in vivo
[11] = AUC in dog at 0-24 hr by peroral administration at 3 mpk; assay type: ADME, organism-based, Canis lupus familiaris; parameters: dose 3 mpk, time < 24 hr, route oral; conditions: plasma, po, 3 mg/kg
Substance-K receptor [12] = target: T1, Substance-K receptor; experiment: […] is characterized by the compound ability to inhibit guinea pig bronchoconstriction; assay type: functional, Lung; conditions: read-out: pA2 (converted)

T2 sequence (P30547 whole entry): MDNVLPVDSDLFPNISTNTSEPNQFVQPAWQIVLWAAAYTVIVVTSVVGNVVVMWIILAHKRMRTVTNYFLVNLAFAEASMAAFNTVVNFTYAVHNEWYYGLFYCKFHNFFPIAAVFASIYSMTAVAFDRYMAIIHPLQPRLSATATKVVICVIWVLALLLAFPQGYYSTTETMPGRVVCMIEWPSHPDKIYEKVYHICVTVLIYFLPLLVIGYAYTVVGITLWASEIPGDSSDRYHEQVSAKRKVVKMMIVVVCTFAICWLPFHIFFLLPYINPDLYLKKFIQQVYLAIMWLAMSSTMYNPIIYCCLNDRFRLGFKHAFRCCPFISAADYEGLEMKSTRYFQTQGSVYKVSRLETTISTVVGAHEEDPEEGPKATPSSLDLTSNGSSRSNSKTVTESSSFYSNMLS

| SMILES | pKi (Substance-K receptor [1]) | pKi (Substance-P receptor [2]) | Kb (Substance-K receptor [3]) | Kb (Substance-P receptor [4]) | bioavailability [10] | AUC at 24 h [11] | Kb (Substance-K receptor [12]) | inhibition in vivo at 10 mg/kg (Cavia porcellus [5]) | inhibition in vivo at 10 mg/kg (Cavia porcellus [6]) | inhibition in vivo at 10 mg/kg (Cavia porcellus [7]) | ED50 (Cavia porcellus [8]) | ED50 (Cavia porcellus [9]) |
| --- | --- | --- | --- | --- | --- | --- | --- | --- | --- | --- | --- | --- |
| CO/N=C(\CN(C)C(=O)c1cc(Cl)cc(Cl)c1)C(CCN1CCC(N2CCCCC2=O)CC1)c1ccc(Cl)c(Cl)c1 (stereo not given) | 8.70 | 8.30 | 50.1 nM |  |  |  |  |  |  |  |  |  |
| CO/N=C(\CN(C)C(=O)c1cc(Cl)cc(Cl)c1)[C@H](CCN1CCC(N2CCCC(CC(=O)N3CC(O)C3)C2=O)CC1)c1ccc(Cl)c(Cl)c1 (stereo not given in full) | 9.52 | 9.22 | 50.1 nM | 10 nM |  |  |  | 64% | 45% |  |  |  |
| CO/N=C(\CN(C)C(=O)c1cc(Cl)cc(Cl)c1)[C@@H](CCN1CCC(N2CCCC(CC(=O)N3CCOCC3)C2=O)CC1)c1ccc(Cl)c(Cl)c1 (stereo not given in full) | 9.10 | 9.10 | 126 nM | 6.31 nM |  |  |  |  |  |  |  |  |
| CO/N=C(\CN(C)C(=O)c1cc(Cl)cc(Cl)c1)[C@H](CCN1CCC(N2CCCC(CC(=O)N3CCOCC3)C2=O)CC1)c1ccc(Cl)c(Cl)c1 (stereo not given in full) | 9.40 | 9.15 | 12.6 nM | 15.8 nM |  |  |  |  | 47% | 97% |  |  |
| CO/N=C(\CN(C)C(=O)c1cc(Cl)cc(Cl)c1)[C@H](CCN1CCC(N2CCCC(CC(N)=O)C2=O)CC1)c1ccc(Cl)c(Cl)c1 (stereo not given in full) | 9.52 | 9.10 | 10 nM | 10 nM | 37% | 9490 ng·h/mL |  |  |  |  | 1 mg/kg | 4 mg/kg |
| CO/N=C(\CN(C)C(=O)c1cc(Cl)cc(Cl)c1)C(CCN1CCC(N2CCCC(CC(=O)N3CC(O)C3)C2=O)CC1)c1ccc(Cl)c(Cl)c1 (stereo not given) | 8.70 | 8.52 | 25.1 nM |  |  |  |  |  |  |  |  |  |
| CO/N=C(\CN(C)C(=O)c1cc(Cl)cc(Cl)c1)[C@@H](CCN1CCC(N2CCCC(CC(N)=O)C2=O)CC1)c1ccc(Cl)c(Cl)c1 (stereo not given in full) | 9.52 | 9.40 | 50.1 nM | 20 nM |  |  |  |  |  |  |  |  |
| CO/N=C(\CN(C)C(=O)c1cc(Cl)cc(Cl)c1)[C@H](CCN1CCC(N2CCCCC2=O)CC1)c1ccc(Cl)c(Cl)c1 | 9.10 and 9.00 | 8.92 and 9.00 | 20 nM | 10 nM | 5% | 1220 ng·h/mL |  |  |  |  | 1 mg/kg | 3 mg/kg |
| CO/N=C(\CN(C)C(=O)c1cc(Cl)cc(Cl)c1)[C@@H](CCN1CCC(N2CCCC(CC(=O)N3CC(O)C3)C2=O)CC1)c1ccc(Cl)c(Cl)c1 (stereo not given in full) | 9.22 | 8.96 |  |  |  |  | 501 nM |  |  |  |  |  |
| CO/N=C(\CN(C)C(=O)c1cc(Cl)cc(Cl)c1)C(CCN1CCC(N2CCCC(CC(=O)N3CCOCC3)C2=O)CC1)c1ccc(Cl)c(Cl)c1 (stereo not given) | 9.00 | 9.00 | 50.1 nM |  |  |  |  |  |  |  |  |  |

More lines, main results first:

| pKi (Substance-K receptor [1]) | pKi (Substance-P receptor [2]) | Kb (Substance-K receptor [3]) | Kb (Substance-P receptor [4]) | bioavailability [10] | AUC at 24 h [11] | Kb (Substance-K receptor [12]) | SMILES | inhibition in vivo at 10 mg/kg (Cavia porcellus [5]) | inhibition in vivo at 10 mg/kg (Cavia porcellus [6]) | inhibition in vivo at 10 mg/kg (Cavia porcellus [7]) | ED50 (Cavia porcellus [8]) | ED50 (Cavia porcellus [9]) |
| --- | --- | --- | --- | --- | --- | --- | --- | --- | --- | --- | --- | --- |
| 9.52 | 9.10 | 39.8 nM | 10 nM |  |  |  | CO/N=C(\CN(C)C(=O)c1cc(Cl)cc(Cl)c1)[C@@H](CCN1CCC(N2CCCC(CC(=O)N(C)C)C2=O)CC1)c1ccc(Cl)c(Cl)c1 (stereo not given in full) |  |  |  |  |  |
| 9.05 | 8.82 | 39.8 nM | 10 nM |  |  |  | CNC(=O)CC1CCCN(C2CCN(CC[C@H](/C(CN(C)C(=O)c3cc(Cl)cc(Cl)c3)=N/OC)c3ccc(Cl)c(Cl)c3)CC2)C1=O (stereo not given in full) |  |  |  |  |  |
| 9.40 | 8.89 | 15.8 nM | 12.6 nM | 66% | 13600 ng·h/mL |  | CNC(=O)CC1CCCN(C2CCN(CC[C@@H](/C(CN(C)C(=O)c3cc(Cl)cc(Cl)c3)=N/OC)c3ccc(Cl)c(Cl)c3)CC2)C1=O (stereo not given in full) |  |  |  | 1 mg/kg | 3 mg/kg |
| 8.52 | 8.70 | 100 nM |  |  |  |  | CO/N=C(\CN(C)C(=O)c1cc(Cl)cc(Cl)c1)C(CCN1CCC(N2CCCC(CC(N)=O)C2=O)CC1)c1ccc(Cl)c(Cl)c1 (stereo not given) |  |  |  |  |  |
| 9.00 | 9.00 | 63.1 nM |  |  |  |  | CO/N=C(\CN(C)C(=O)c1cc(Cl)cc(Cl)c1)C(CCN1CCC(N2CCCC(CC(=O)N(C)C)C2=O)CC1)c1ccc(Cl)c(Cl)c1 (stereo not given) |  |  |  |  |  |
| 9.70 | 9.10 | 39.8 nM | 12.6 nM |  | 3460 ng·h/mL |  | CO/N=C(\CN(C)C(=O)c1cc(Cl)cc(Cl)c1)[C@H](CCN1CCC(N2CCCC(CC(=O)N(C)C)C2=O)CC1)c1ccc(Cl)c(Cl)c1 (stereo not given in full) |  |  |  | 3 mg/kg | 3 mg/kg |
| 8.70 | 8.70 | 50.1 nM |  |  |  |  | CNC(=O)CC1CCCN(C2CCN(CCC(/C(CN(C)C(=O)c3cc(Cl)cc(Cl)c3)=N/OC)c3ccc(Cl)c(Cl)c3)CC2)C1=O (stereo not given) |  |  |  |  |  |
